# Laboratory results: patent US6417211B1, “Isothiazolone concentrates” (Rohm and Haas Company, priority 1999, dated 2002)
# Marks after values point to notes of the source that are not given here.
# What was measured:
# [1] = Chemical stability of MI solutions on storage (HPLC, % active ingredient remaining); format: physicochemical; conditions: ± 1-2%
# [2] = Physical stability of MI solutions on storage (homogeneity, clarity, crystallization, precipitation, phase separation); format: physicochemical
# Method: By “physically stable” we mean that the compositions are homogeneous and fluid at temperatures of 20 to 25° C. for at least 24 hours. Preferably the compositions are physically stable at 20° C. and below for at least 3 days, more preferably for at least 2 weeks, and most preferably for at least 4 weeks. In addition, it is desirable that the compositions retain their physical stability for similar time periods at temperatures of 15° C. and below, and preferably at 5° C. and below.
# Samples of technical grade 2-methyl-3-isothiazolone (MI) were used to prepare solutions of the NHITA in various solvents at different concentrations. […] Solutions were prepared by adding a weighed amount of molten MI (melted at about 55° C.) to a weighed amount of deionized water (or a solvent or a solvent-water mixture) in a 20-milliliter (ml) vial; the mixture was swirled and allowed to cool to room temperature. The prepared samples were allowed to stand at room temperature (20-25° C.) for 24 hours and then subjected to storage at cooler temperatures (5° C. and −17° C.) for at least 72 hours; observations were made at each condition to determine physical stability (homogeneity, clarity, crystallization, precipitation, phase separation). The samples were considered physically stable if no crystallization, phase separation or precipitation occurred; concentrations (or concentration ranges) at which the compositions were unstable are indicated by ** superscript, otherwise concentrations (ranges) listed were stable; results are summarized in Table I (concentrations are weight % MI).
# [3] = solvent DEC (diethyl carbonate), 20-25° C., 24 hours
# [4] = solvent DME (1,2-dimethoxyethane), 20-25° C., 24 hours
# [5] = solvent DMSO, 20-25° C., 24 hours
# [6] = solvent IPA (isopropanol), 5° C., at least 72 hours
# [7] = solvent MeOH, 5° C., at least 72 hours
# [8] = solvent PC (propylene carbonate), 20-25° C., 24 hours
# [9] = solvent PG (propylene glycol), 5° C., at least 72 hours
# [10] = solvent Water, 5° C., at least 72 hours
# [11] = solvent Water, 20-25° C., 24 hours
# [12] = solvent Water, −17° C., at least 72 hours
compound,measurement,setting,value
"Cn1sccc1=O [MI, 2-Methyl-3-isothiazolone]",% Active Ingredient (MI) Remaining,"[1]; initial MI concentration 68, PG, 40° C./11 days",100%
same,% Active Ingredient (MI) Remaining,"[1]; initial MI concentration 78, MeOH, 40° C./11 days",104%
same,% Active Ingredient (MI) Remaining,"[1]; initial MI concentration 85.8, Water, 55° C./4 weeks",97.1%
same,% Active Ingredient (MI) Remaining,"[1]; initial MI concentration 88, 50/50 MeOH/Water, 40° C./11 days",101%
same,time solution remained stable,"[2]; 80% MI solution in water, 5° C.",at least 4 months
same,time solution remained stable,"[2]; 90% MI solution in water, 5° C.",at least 4 months
same,MI concentration physically stable,"[2]; solvent 50/50 MeOH/Water, 5° C., at least 72 hours",88 weight %
same,MI concentration physically stable,"[2]; solvent 50/50 MeOH/Water, 20-25° C., 24 hours",88 weight %
same,MI concentration physically unstable (crystal formation or insoluble),"[2]; solvent 50/50 MeOH/Water, −17° C., at least 72 hours",88** weight %
same,MI concentration physically unstable (crystal formation or insoluble),"[2]; solvent BEE (2-(2-butoxyethoxyl)ethanol), 5° C., at least 72 hours",68-88** weight %
same,MI concentration physically stable,"[2]; solvent BEE (2-(2-butoxyethoxyl)ethanol), 20-25° C., 24 hours",68-88 weight %
same,MI concentration physically unstable (crystal formation or insoluble),"[2]; solvent DEC (diethyl carbonate), 5° C., at least 72 hours",70** weight %
same,MI concentration physically stable,[2]; [3],70 weight %
same,MI concentration physically unstable (crystal formation or insoluble),[2]; [3],80-90 weight %
same,MI concentration physically unstable (crystal formation or insoluble),"[2]; solvent DME (1,2-dimethoxyethane), 5° C., at least 72 hours",70-80** weight %
same,MI concentration physically stable,[2]; [4],70-80 weight %
same,MI concentration physically unstable (crystal formation or insoluble),[2]; [4],90 weight %
same,MI concentration physically unstable (crystal formation or insoluble),"[2]; solvent DMSO, 5° C., at least 72 hours",70-80** weight %
same,MI concentration physically stable,[2]; [5],70-80 weight %
same,MI concentration physically unstable (crystal formation or insoluble),[2]; [5],90 weight %
same,MI concentration physically unstable (crystal formation or insoluble),"[2]; solvent DPG (dipropylene glycol), 5° C., at least 72 hours",75-90** weight %
same,MI concentration physically stable,"[2]; solvent DPG (dipropylene glycol), 20-25° C., 24 hours",75-90 weight %
same,MI concentration physically stable,[2]; [6],78 weight %
same,MI concentration physically unstable (crystal formation or insoluble),[2]; [6],88 weight %
same,MI concentration physically stable,"[2]; solvent IPA (isopropanol), 20-25° C., 24 hours",78-88 weight %
same,MI concentration physically unstable (crystal formation or insoluble),"[2]; solvent IPA (isopropanol), −17° C., at least 72 hours",78** weight %
same,MI concentration physically stable,[2]; [7],78 weight %
same,MI concentration physically unstable (crystal formation or insoluble),[2]; [7],88 weight %
same,MI concentration physically stable,"[2]; solvent MeOH, 20-25° C., 24 hours",78-88 weight %
same,MI concentration physically stable,"[2]; solvent MeOH, −17° C., at least 72 hours",78 weight %
same,MI concentration physically unstable (crystal formation or insoluble),"[2]; solvent PC (propylene carbonate), 5° C., at least 72 hours",69** weight %
same,MI concentration physically stable,[2]; [8],69 weight %
same,MI concentration physically unstable (crystal formation or insoluble),[2]; [8],80-90 weight %
same,MI concentration physically stable,[2]; [9],68 weight %
same,MI concentration physically unstable (crystal formation or insoluble),[2]; [9],78-88 weight %
same,MI concentration physically stable,"[2]; solvent PG (propylene glycol), 20-25° C., 24 hours",68-88 weight %
same,MI concentration physically stable,"[2]; solvent PG (propylene glycol), −17° C., at least 72 hours",68 weight %
same,MI concentration physically stable,[2]; [10],60-89.5 weight %
same,MI concentration physically unstable (crystal formation or insoluble),[2]; [10],90.5 weight %
same,MI concentration physically stable,[2]; [11],60-94.4 weight %
same,MI concentration physically unstable (crystal formation or insoluble),[2]; [11],95.4 weight %
same,MI concentration physically stable,[2]; [12],70-77 weight %
same,MI concentration physically unstable (crystal formation or insoluble),[2]; [12],88 weight %
same,MI concentration physically stable,"[2]; solvent φCH2OH (benzyl alcohol), 5° C., at least 72 hours",60 weight %
same,MI concentration physically stable,"[2]; solvent φCH2OH (benzyl alcohol), 20-25° C., 24 hours",60 weight %
same,MI concentration physically unstable (crystal formation or insoluble),"[2]; solvent φCH2OH (benzyl alcohol), −17° C., at least 72 hours",60** weight %
same,MI concentration physically stable,"[2]; solvent φOCH2CH2OH (phenoxyethanol), 5° C., at least 72 hours",60 weight %
same,MI concentration physically stable,"[2]; solvent φOCH2CH2OH (phenoxyethanol), 20-25° C., 24 hours",60 weight %
same,MI concentration physically unstable (crystal formation or insoluble),"[2]; solvent φOCH2CH2OH (phenoxyethanol), −17° C., at least 72 hours",60** weight %
